{"source": "paper PMC10072326", "about": "“Promising anticancer agents based on 8-hydroxyquinoline hydrazone copper(II) complexes” (Frontiers in Chemistry, 2023)", "key": {"A-375 cells": {"test_system": "A-375 cells", "experiment": "Sulforhodamine B (SRB) cell viability assay", "assay_type": "cell-based", "conditions": "Homo sapiens, 72 h", "method": "(§1) Copper compounds were tested, along with the free ligands and cisplatin as the positive control, for their cytotoxicity on both melanoma (A-375) and lung adenocarcinoma (A-549) cell lines in the concentration range 0.78–50 μM. Following 72 h of incubation, cell viability was measured via sulforhodamine B (SRB) assay (Supplementary Figure S25).\n(§2) A-375 cells (ATCC, CRL-3222) were grown in Dulbecco’s Modified Eagle Medium with high glucose (Gibco #11965118) and A-549 (ATCC, CCL-185) cells were grown in Dulbecco’s Modified Eagle Medium F-12 (Gibco #11320033), supplemented with 10% FBS (Gibco, #10500064) and Penicillin-Streptomycin (10,000 U/mL, Gibco, #15140122). Cells were incubated at 37 °C, 5% CO2 incubator and subcultured every 3 days.\n(§3) All the tested complexes were dissolved in DMSO (10 mM stock solution), and aliquots were stored at -20 °C, thawed on the experiment day and used only once. For SRB cell viability assay, A-375 and A-549 cells were seeded on 96-well plates (4×10^3 cells/well) and treated with serial dilutions of indicated compounds (with a concentration range of 0-50 μM, 72 h). Trichloroacetic acid (TCA) was added to wells for fixation at a final concentration of 10%, for 1 h at 4 °C. Each well was washed five times with ddH2O, dried, and incubated with 0.4% (w/v) SRB dye (50 µL/well) for 30 min at room temperature. The wells were washed with 1% acetic acid (v/v) five times, and 150 µL of 10 mM Tris solution was added to dissolve the stain. Colorimetric measurements were taken at λ = 564 nm. Viability percentage was calculated as follows: % Cell Viability = [100 × (sample Abs.-blank) / (non-treated control Abs.-blank)]."}, "A-549 cells": {"test_system": "A-549 cells", "experiment": "Sulforhodamine B (SRB) cell viability assay", "assay_type": "cell-based", "conditions": "Homo sapiens, A549, 72 h", "method": "as §1, §2, §3"}, "[1]": {"set-up": "method as in Ribeiro et al., 2022", "conditions": "30% (v/v) DMSO/H2O; t = 25.0°C; I = 0.1 M (KCl); ref Ribeiro et al., 2022; cited from earlier work"}, "[2]": {"set-up": "method as in Ribeiro et al., 2022", "conditions": "ligand precursors; pH 7.4; ref Ribeiro et al., 2022; cited from earlier work"}, "[3]": {"experiment": "Cu(II) complex formation and stability constants by UV-Vis spectrophotometric titrations", "assay_type": "physicochemical", "conditions": "for pCu (= −log[Cu(II)]): pH 7.4, c Cu(II) = 1 μM, computed from stability constants", "method": "The complex formation processes of L^1, L^5 and L^6 with Cu(II) ions were studied by UV-Vis spectrophotometry in 30% (v/v) DMSO/H2O using relatively low concentrations (c L = 50–60 μM), due to the limited water solubility of the ligand precursors as well as of the Cu(II) complexes (see thermodynamic solubility data in aqueous media in Table 2 and Table 3). L^1 was selected as the simplest compound of the studied ligand series, whereas L^5 and L^6 were selected to compare with the oxidovanadium(IV) system ([Ribeiro et al., 2022]). The solution stability and stoichiometry of the Cu(II) complexes were determined by the evaluation of the UV-Vis spectra recorded at various pH values (representative spectra are shown for the Cu(II) ‒ L^1 and Cu(II) ‒ L^6 systems in Figures 3A,B and for Cu(II) ‒ L^5 in Supplementary Figure S10A). The computed overall stability constants and pK a values of the complexes are collected in Table 3. The formation of only mono-ligand complexes was found with [Cu(LH)]^+, [Cu(L)], and [Cu(LH‒1)]^‒ (and [Cu(LH‒2)]^2‒ in the case of L^6) compositions, and their computed molar absorbance spectra are shown in Figures 3C, D, Supplementary Figure S10B.\nAn Agilent Cary 8454 diode array spectrophotometer was used to record the UV-Vis spectra in the range of 200–800 nm. Titrations were carried out with a Metrohm 665 Dosimat burette and an Orion 710A pH-meter equipped with a Metrohm combined electrode. A ionic strength of 0.10 M (KCl) was used to keep the activity coefficients constant. The titrations were performed with 0.10 M carbonate-free KOH solution in a 30% (v/v) DMSO/H2O solvent mixture. […] The average water ionization constant (pKw) is 14.53 ± 0.05 in the 30% (v/v) DMSO/H2O solvent mixture. The pKa values of the ligand precursors and the logβ values for the Cu(II) complexes were determined in 30% (v/v) DMSO/H2O in the same way as it was done in our previous publications (9, 11).\nSpectrophotometric titrations were carried out on samples containing the ligands at 50 μM concentration, in the pH range from 2.0 to 11.5 in the absence or the presence of 1, 0.5 or 0.25 equiv. Cu(II) ions, using 10 cm^3 sample volumes. Proton dissociation constants (pKa) of the ligand precursors as well as stoichiometry and stability constants of the Cu(II) complexes (β) were calculated by the computer program PSEQUAD (12). The usual definition of overall (β) and stepwise (K) formation constants is used: […]"}, "[4]": {"molecular_target": "bovine serum albumin (BSA) (Bos taurus, UniProt P02769)", "sequence (P02769 25-607)": "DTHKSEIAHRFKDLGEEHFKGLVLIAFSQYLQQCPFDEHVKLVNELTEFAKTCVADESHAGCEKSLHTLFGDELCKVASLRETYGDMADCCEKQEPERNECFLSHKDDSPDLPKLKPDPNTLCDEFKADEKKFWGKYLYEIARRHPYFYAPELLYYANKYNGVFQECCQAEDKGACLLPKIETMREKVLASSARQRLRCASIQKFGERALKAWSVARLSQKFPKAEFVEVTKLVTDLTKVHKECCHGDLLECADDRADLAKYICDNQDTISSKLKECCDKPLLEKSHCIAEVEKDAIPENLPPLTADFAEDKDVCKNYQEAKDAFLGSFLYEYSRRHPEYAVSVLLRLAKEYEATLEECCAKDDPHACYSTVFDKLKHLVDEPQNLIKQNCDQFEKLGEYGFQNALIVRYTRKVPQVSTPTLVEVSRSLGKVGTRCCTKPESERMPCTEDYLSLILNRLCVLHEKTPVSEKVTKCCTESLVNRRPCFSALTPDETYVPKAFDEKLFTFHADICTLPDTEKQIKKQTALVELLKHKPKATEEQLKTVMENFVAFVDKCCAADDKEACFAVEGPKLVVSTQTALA", "experiment": "BSA fluorescence quenching", "assay_type": "binding", "set-up": "Affinity constant K ± SD: unit not given here", "conditions": "fluorescence quenching; HypSpec2014; 1:1 species assumed", "method": "To evaluate the interaction of the compounds, both organic and Cu(II) complexes, with bovine serum albumin (BSA) fluorescence spectra were measured. In a typical fluorescence experiment, to a solution of 1.5 μM of BSA in the same buffer, successive aliquots of a stock solution of each compound in DMSO were added directly to the cuvette (optical path 1.0 cm). The fluorescence emission was recorded between 310 and 600 nm with excitation at 295 nm. The final DMSO % was kept below 2% (v/v). The Stern-Volmer plots were built using the emission at 340 nm and blank samples (in the absence of BSA) with the same concentration of the complexes were recorded and subsequently subtracted from the corresponding emission spectra containing the fluorophore. Moreover, the fluorescence emission intensity was corrected for reabsorption and inner filter effects using UV-Vis absorption data recorded for each sample, since all complexes absorb in the measured wavelength range (19, 20).\nThe interaction of the organic compounds and Cu(II) complexes with BSA was monitored by studying the quenching of albumin’s fluorescence emission with increasing concentrations of the complexes (25). Overall, the intensity of the Trp emission decreases with the addition of the complexes, except for 8 (see Figs. S19). The Stern-Volmer relationship was used to analyse the fluorescence quenching process:\nwhere I0 and I are the fluorescence intensities in the absence and in the presence of quencher, kq is the bimolecular quenching rate, τ0 is the fluorophore lifetime in the absence of the quencher (6.22 ns) (26) and [Q] is the quencher concentration. […] This linear relationship is obeyed for all complexes except 5, where a downward curvature is observed. This can be an indication of two distinct binding sites, corresponding to two populations of fluorophores, one being accessible and other inaccessible or buried inside the protein. In such cases, the Stern-Volmer relation can be modified to (27):\nwhere ΔI = I0 – I, Ka is the Stern-Volmer constant for the accessible fraction and fa is the fraction of accessible fluorophore. […] As first approximation, the total concentration of quencher was used to check the quenching mechanism. […] As all systems presented high absorbance values in the measured range of wavelengths, no excess of quencher was used and, therefore, 1:1 species will be assumed for these interactions."}, "[5]": {"conditions": "Cu(II) complex of the ligand, 30% (v/v) DMSO/H2O, t = 25.0°C, I = 0.10 M (KCl)"}, "[6]": {"conditions": "proton dissociation of the Cu(II) complex, 30% (v/v) DMSO/H2O"}}, "data": [{"smiles": "O=C(N/N=C/c1ccc2cccc(O)c2n1)c1ccccc1", "note": "[L^1]", "values": [{"measurement": "IC50", "setting": "A-375 cells", "value": "12.3 ± 0.5", "unit": "µM"}, {"measurement": "IC50", "setting": "A-549 cells", "value": "> 50", "unit": "µM"}, {"measurement": "pK a1", "setting": "[1]", "value": 2.24}, {"measurement": "pK a2", "setting": "[1]", "value": 9.51}, {"measurement": "pK a3", "setting": "[1]", "value": 11.45}, {"measurement": "thermodynamic solubility S 7.4", "setting": "[2]", "value": 3.7, "unit": "µM"}, {"measurement": "logβ [Cu(L)]", "setting": "[3]; [5]", "value": "17.79 ± 0.02"}, {"measurement": "logβ [Cu(LH)]^+", "setting": "[3]; [5]", "value": "23.41 ± 0.02"}, {"measurement": "logβ [Cu(LH‒1)]^‒", "setting": "[3]; [5]", "value": "7.39 ± 0.03"}, {"measurement": "pCu (= −log[Cu(II)])", "setting": "[3]; c L = 1 μM", "value": 8.96}, {"measurement": "pCu (= −log[Cu(II)])", "setting": "[3]; c L = 10 μM", "value": 12.59}, {"measurement": "pK a [Cu(L)]", "setting": "[3]; [6]", "value": 10.40}, {"measurement": "pK a [Cu(LH)]^+", "setting": "[3]; [6]", "value": 5.62}, {"measurement": "Affinity constant K ± SD", "setting": "[4]", "value": "(4.6 ± 0.2) × 10^5"}]}]}
